Results on 90 compounds are retold here after a melting point compilation (Tetko et al.; mined from patent text by program, amines drawn as free bases though some values may be those of a salt).

As usually defined, the melting point is the temperature, or range, at which the solid turns liquid. `Cc1c[nH]c(CCC(=O)O)c1` gave a melting point of 109 to 112 °C.

`CC(C)C(=O)N[C@@H](CS)C(=O)NCCSC(=O)C(C)C` showed a melting point of 125 to 127 °C. In the case of `Cc1ccc(S(=O)(=O)OCC2COc3ccc([N+](=O)[O-])c(CC=O)c3O2)cc1` (stereo not given), the melting point was 116 to 120 °C. Then `Cc1cc(N2CCN(c3nc(-c4ccccc4)nc(C)c3C)CC2)cc(C)c1O`, with 188 to 189 °C. The same measure for `O=C(CC1(c2ccccc2)CCCCC1)C(=O)Nc1ccc2c(c1)COC2=O`: 120 to 123 °C; for `C#CCN(CC#C)c1cc(OC)c(OC)c(OC)c1`: 62 to 63 °C. The same measure for `C=CCN1CCN(C2=NC3(C=CC(=O)C=C3)C(c3ccccc3)=C2)CC1`: 171 °C; for `Cc1ccc(C=C2CCc3cc(OCCc4c[nH]cn4)ccc3C2=O)s1`: 69 to 70 °C; for `CCC(=O)CNC(=O)CSc1cnc(NC(C)=O)s1`: 195 to 196 °C. As to `CCCCCc1cc(N)cc(O)c1`, the melting point fell in the range of 88 to 91 °C. Then `CCN1CC(=O)N(c2ccc3ccccc3c2)C1=S`, with 156 to 159 °C; and `Cc1cc(Br)cc(C=O)c1F`, with 48 to 50 °C. Then `O=CC(=Cc1ccc(Cl)cc1Cl)C1CCOCC1`, with 82 to 85 °C; and `Cc1c(-c2ccccc2)nc2ccc(-c3cccc(CO)c3)cn12`, with 222 to 223 °C. Then `FC(F)(F)c1ccc(-c2nc(Cl)cc(-c3ccccc3)n2)cc1`, with 82 to 84 °C.

In turn, `CCOC(=O)C1=C(C)NC(c2ccccc2)=NC1c1ccccc1[N+](=O)[O-]` (stereo not given) registered a melting point of 102 to 105 °C. Then `Nc1nc(N)nc(-c2ccc(NS(=O)(=O)c3cccc4ccccc34)cc2)n1`, with > 250 °C; and `COC(=O)CCC(C(=O)c1cccc(O)c1)c1ccccc1C` (racemic), with 101 to 103 °C; and `CC(C)(S)CNC(=O)CCC(=O)O`, with 86 to 87 °C. For the compound `O=C(Nc1ccc(N2CCN(C(=O)Nc3ccc(OCCO)cc3C(F)(F)F)CC2)cc1)Nc1nc(C2CC2)cs1`, the melting point is 120 to 123 °C. Then `COc1nc(C)nc(NC(=O)NS(=O)(=O)c2ccc(Cl)nn2)n1`, with 135 °C. Then `CCOC(=O)c1c2ccc(Cl)cc2c(-c2ccccc2)n1C`, with 94 to 96 °C.

`Cc1nc(N)nc(N)c1CCCc1cc(Cl)c(Cl)cc1Cl`: the melting point was 215 °C.

For the compound `COc1ccc(CN(C)CCCOc2ccc(NC(=O)c3cccc4c(=O)c5cccc(F)c5[nH]c34)c(C)c2)cc1OC`, the melting point was determined as 130 °C. Then `O=c1[nH]c2ccccc2c2nc(-c3ccccc3)cn12`, with 278 to 280 °C. The same measure for `Cc1onc(-c2cccc(Cl)c2)c1C(=O)O`: 171 to 173 °C. Then `O=CNC1=CCc2cc(Cl)ccc21`, with 155 °C; and `Cc1c(CC2CCc3c(c4ccccc4n3Cc3ccccc3)C2=O)ncn1C(c1ccccc1)(c1ccccc1)c1ccccc1` (stereo not given), with 78 to 80 °C. `CC(C)c1c(Sc2cccc(Cl)c2)nc(CO)n1C` registered a melting point of 105 to 106 °C. `Cn1ncc2nn(-c3cccc(C(F)(F)F)c3)c(=O)c(Cl)c21`: the melting point fell in the range of 156 to 158 °C.

Turning to `N#Cc1cccc(Oc2ccc(CBr)cc2)c1C#N`, the melting point fell in the range of 130 to 132 °C.

On to `FC(F)(F)c1nnc(S)s1`, for which the melting point fell in the range of 72 to 73 °C.

In turn, `Nc1ccc(/C=C/c2c(F)cccc2F)cc1` gave a melting point of 74 to 75 °C.

Compound `c1cnc2ccc(Nc3nccc(-c4ccc(N5CCNCC5)nc4)n3)cc2c1` registered a melting point of 199 to 200 °C. The same measure for `COC(=O)c1sc(-c2ccc(OC)cc2)cc1NC(C)=O`: 148 to 149 °C; for `COC(=O)c1ccc2c(-c3cccc(OC)c3)nc(=O)n(C(C)C)c2c1`: 164 to 167 °C.

The compound `O=C(O)CCOc1ccc(CCNC(=O)C2Cc3ccccc3N2S(=O)(=O)c2ccc(-c3cccc(C(F)(F)F)c3)cc2)cc1` (stereo not given) returned a melting point of 70 °C.

`Cn1c(CN2C(=O)C3(COc4cc5c(cc43)OCCO5)c3ccccc32)nc2ccccc21` (stereo not given): the melting point was > 240 °C. The same measure for `CSCC(O)(Cn1cncn1)c1ccc(Cl)cc1Cl` (stereo not given): 117 to 119 °C; for `CC(=NO)C1=CCC2C3CCC4CC=CCC4(C)C3C(=O)CC12C` (stereo not given): 168 to 182 °C. Regarding `CCCCCCCCCc1ccc(C(=O)O)c(O)c1`, the melting point was in the range of 94 to 97 °C.

Regarding `CNC(=O)c1cnc2ccccc2c1-c1ccccn1`, the melting point lay within 171 to 172 °C. Then `CCOc1cc2c(cc1OC(C)=O)CCC1C2CCC2(C)C(OC(C)=O)CCC12` (stereo not given), with 132 to 133 °C; and `CN(CCO)Cn1nc(-c2ccncc2)n(-c2ccccc2)c1=S`, with 173 to 174 °C. The same measure for `C=CCc1cccnc1C(=O)OC`: 116 to 119 °C; for `Cc1cc(C#N)cc(C(=O)Nc2nc(C)cs2)n1`: 211 °C; for `CCOC(=O)c1cc2cccc(N(C)S(=O)(=O)c3nccn3C)c2[nH]1`: 120 °C.

Compound `COc1ccc2c(c1)C13CCN(C#N)C(C2)C1(OC)CCC(=O)C3` (stereo not given) showed a melting point of 172 to 176 °C. The same measure for `CCOC(=O)C(Cc1ccc(OCCN2CCC(C)(C)c3cc(C(=NOC)c4ccccc4)ccc32)cc1)OCC(F)(F)F` (stereo not given): 58 to 60 °C; for `O=C(Nc1ccccc1)Nc1ccc(F)c([N+](=O)[O-])c1`: 200 to 202 °C; for `CCOC(=O)c1ccc(OCCCCCCCCCCC(C(=O)CC)C(=O)CC)cc1`: 45 to 46 °C. The compound `CC1CC(=O)NN=C1c1ccc(-n2ccc(C=O)c2)cc1` (stereo not given) displayed a melting point of 191 to 192 °C. For the compound `COc1c(OCc2ccccc2)ccc(C(=O)O)c1N`, the melting point was in the range of 167 to 168 °C.

Regarding `c1ccc(-c2nn(CCCCCCCCc3nn[nH]n3)c(-c3ccccc3)c2-c2ccccc2)cc1`, the melting point is 158 to 160 °C.

The compound `Cc1cccnc1NC(=O)OC(C)(C)C` came in with a melting point of 132 to 133 °C. The compound `CCCCC(CNc1nc(C)c(O)c(C(C)C)n1)c1ccccc1` (stereo not given) gave a melting point of 60 to 61 °C.

As for `COC(=O)c1ccc(NC2CCCCC2)cc1C(=O)OC`, the melting point is 217 to 219 °C. For `C=C(CCC(C)C1CCC2(C)C3CCC4C(C)(C)C(O)CCC45CC35CCC12C)C(C)C` (stereo not given), the melting point lay in the range of 123 to 124 °C.

The compound `CC#CCn1nnc2cc3c(=O)n(C(C)Cn4nccn4)nnc3cc2c1=O` (stereo not given) displayed a melting point of 154 to 156 °C. In turn, `CC1=NC(c2ccccc2)c2c(cc[nH]c2=O)N1` (stereo not given) returned a melting point of 263 to 264 °C. The same measure for `CC(=O)C=Cc1ccc(NS(C)(=O)=O)c(Oc2ccc(F)cc2F)c1`: 130 to 132 °C; for `CSc1ccc(C(=O)NCc2ccc3c(c2)C(=O)N(C2(C)CCC(=O)NC2=O)C3=O)nc1` (stereo not given): 210 to 212 °C. Then `CC(=O)Nc1cccc(Nc2ncnc3[nH]cc(C(=O)c4cccc(F)c4)c23)c1`, with > 300 °C; and `COc1ccc2c(c1)OC(=O)C(C)(C#Cc1ccccc1)C2` (stereo not given), with 136 to 138 °C.

As to `COC(=O)[C@@H](Cc1ccccc1)Oc1c(Br)cc(-c2c3ccccc3c(Br)c3sc(C)c(C)c23)cc1C1CCCC1`, the melting point was in the range of 167 to 168 °C. The same measure for `O=C(O)CC/C=C\CC[C@@H]1[C@@H](OCc2ccc(-c3ccccc3)cc2)CO[C@@H]1c1cccnc1`: 94 to 96 °C; for `OC1(COc2ccccc2Cc2ccccc2)CN2CCC1CC2` (stereo not given): 71 to 73 °C; for `COc1ccc(C=CC(=O)c2c(OC)cc(OC)cc2OC(=O)c2ccc(OC)cc2OC)cc1`: 119 to 120 °C.

Consider `O=C(Nc1cc(C(F)(F)F)on1)C(Cl)(Cl)Cl`, for which the melting point came to 114 °C. On to `CCCOc1c(OC)cc([C@H]2CC[C@H](c3cc(OC)c(OC)c(OC)c3)O2)cc1S(=O)(=O)CCO` (relative stereo), for which the melting point lay within 141 to 142 °C. With `NCC(C(=O)O)C1CCCCC1` (stereo not given), the melting point lay in the range of 238 to 240 °C. The same measure for `CCCCCc1cc(O)c(C2=C(CO)CCC(C)C2)c(O)c1` (stereo not given): 109 to 111 °C.

Compound `O=C(NCc1ccc(Cl)c(Cl)c1)c1cn2c(=O)n(Cc3ccc(Cl)cc3)c(=O)cc2s1` displayed a melting point of 218 to 219 °C. Then `O=C(O)CNS(=O)(=O)c1ccc(N2CCC(c3ccccc3)CC2)cc1`, with 154 to 156 °C. Then `O=C(Nc1ccccc1)c1cccc(Oc2ccccc2)c1`, with 111 to 112 °C; and `CSc1ccc(Oc2ccc([N+](=O)[O-])cc2)cc1`, with 59 to 61 °C; and `CCCCc1ncc(/C=C(\Cc2cccs2)C(=O)O)n1Cc1cccc([N+](=O)[O-])c1`, with 182 to 184 °C. In turn, `CCOC(=O)C(=Cc1cccc2ccccc12)c1csc(N)n1` came in with a melting point of 155 to 157 °C. The same measure for `CC(=O)c1ccc(-n2c(-c3sc(Nc4ccc(Cl)cc4)nc3-c3ccccc3)nc3ccccc3c2=O)cc1`: 218 to 220 °C; for `O=c1ccn(-c2ccncc2)nc1-c1ccnn1-c1ccccc1`: 202 to 203 °C. `Cc1ccc(C2C=C3C(=CCC4=C3NN(C)CC4)S2=O)cc1` (stereo not given) had a melting point of 160 to 162 °C. Regarding `CCc1nnc(-c2ccc(OC)c(OC)c2)n1-c1ccc(OC)cc1`, the melting point is 148 °C. In turn, `CCCCCS(=O)(=O)NC(=O)CCc1cc(C(C)(C)C)nn1Cc1ccc(C(F)(F)F)cc1Cl` displayed a melting point of 136 to 137 °C. Then `Cc1ccc(C(CCN(C(C)C)C(C)C)(CCN(C(C)C)C(C)C)C(N)=O)cc1`, with 97 to 100 °C; and `COc1cc2nc(S(=O)Cc3cc(N(C)C)c(Cl)cn3)[nH]c2cc1OC` (stereo not given), with 164 to 165 °C; and `O=Cc1cn(-c2ccc(C(F)(F)F)cn2)nc1C1CCCCC1`, with 103 to 104 °C. The same measure for `COC(=O)C1C=CCN2C(=O)C(C)(CCI)C(=O)N12` (stereo not given): 86 to 87 °C; for `O=c1cc2c3cccnc3sn2c2ccccc12`: > 350 °C. Then `CC(C)(C(=O)O)c1ccc2cc(OCc3ccc4ccccc4n3)ccc2c1`, with 207 to 209 °C; and `Cc1cc(-c2ccc(Cl)c(Cl)c2)nc(-n2cnc(-c3ccc(S(N)(=O)=O)cc3)c2)n1`, with 282 °C.
